How the values were obtained:
ACC-201 human GC cells [1] = assay: MTT assay (viability; isobolographic analysis); assay type: cell-based; conditions: ACC-201, 72 h incubation, mean ± SEM
Description: (§1) The human GC cells ACC-201, AGS, MKN-74 and NCI-N87 were placed in 96-well plates and allowed to adhere overnight. On the following day, the growth medium was removed, and the cells were treated with a series of tested MGN and DCT dilutions (2.0–75 and 0.0004–0.0404 µg/mL, respectively) for 72 h at 37 °C. […] Subsequently, a solution of MTT (5 mg/mL) was added to each well, and the cells were further incubated for 3 h at 37 °C. Tetrazolium salt was reduced to violet formazan derivatives via the succinate dehydrogenase of metabolically active cells. Insoluble formazan compounds formed inside the cells were extracted with a sodium dodecyl sulfate buffer (10% SDS in 0.01 N HCl) overnight to achieve a quantitative assessment of the amount produced. The absorbance of the samples was measured at 570 nm using Infinite M200 Pro microplate reader (Tecan, Männedorf, Switzerland). Cell viability was presented as a percentage relative to the untreated control cells.
(§2) Interactions between MGN and DCT analyzed after 72 h in four different GC cell lines (ACC-201, AGS, MKN-74 and NCI-N87) were characterized by means of an isobolographic analysis in the MTT assay. The percentage inhibition of cell viability accompanied by the specific concentrations of the tested substances (MGN and DCT) were transferred to the MS Excel spreadsheet, and the data were computed using the log–probit method. Next, the concentration–response effect graphs for the tested drugs (MGN and DCT) were drawn, and the IC50 values for every tested drug were calculated. The cooperative effect of two concentration–response lines was tested for the MGN and DCT combination, as previously described. The calculations of IC50 values (±SEM) were computed with formulas originally derived from the log–probit method and adapted to the in vitro conditions, as described earlier. The concentration–response lines for MGN and DCT were not parallel, and thus, the isobolographic additivity was illustrated graphically as an area bounded by two (upper and lower) lines of additivity. From the experimentally denoted IC50 values for MGN and DCT in the MTT assay, median additive inhibitory concentrations (IC50add) for the mixture (at the fixed ratio of 1:1 of MGN and DCT) in various cell lines (ACC-201, AGS, MKN-74 and NCI-N87) were calculated, as described previously. More information on isobolographic analysis can be found in the literature.

AGS human GC cells [2] = assay: MTT assay (viability; isobolographic analysis); assay type: cell-based; conditions: 72 h incubation, mean ± SEM
Description: as §1, §2

MKN-74 human GC cells [3] = assay: MTT assay (viability; isobolographic analysis); assay type: cell-based; conditions: MKN-74, 72 h incubation, mean ± SEM
Description: as §1, §2

NCI-N87 human GC cells = assay: MTT assay (viability; isobolographic analysis); assay type: cell-based; conditions: NCI-N87, 72 h incubation, mean ± SEM
Description: as §1, §2

ACC-201 human GC cells [4] = assay: Active caspase-3 analysis (flow cytometry); assay type: cell-based; conditions: ACC-201, MGN 10 µg/mL, 72 h
Description: (§3) Human GC cells ACC-201, AGS, MKN-74 and NCI-N87 were seeded in 6-well plates and allowed to adhere overnight. On the following day, the growth medium was replaced with fresh medium, and the cells were exposed to indicated concentrations of MGN (10–40 µg/mL) for 72 h. Apoptotic cells were analyzed using PE Active Caspase-3 Apoptosis Kit (BD Biosciences) according to the manufacturer’s instructions. Briefly, the cells were collected, washed with cold PBS and then incubated in Cytofix/Cytoperm Solution for 20 min on ice. After two washes, the cells were incubated with Active Caspase-3 Antibody in Perm/Wash Buffer for 30 min at room temperature. Finally, the cells were resuspended in Perm/Wash Buffer and quantitative analysis of 10,000 cells per sample was performed through the use of FACS CaliburTM flow cytometer (BD Biosciences, Mountain View, CA, USA).

AGS human GC cells [5] = assay: Active caspase-3 analysis (flow cytometry); assay type: cell-based; conditions: 72 h
Description: as §3

MKN-74 human GC cells [6] = assay: Active caspase-3 analysis (flow cytometry); assay type: cell-based; conditions: MKN-74, MGN 10 µg/mL, 72 h
Description: as §3

[7] = system: zebrafish embryos and larvae; assay: Zebrafish embryo toxicity test (OECD test no. 236, modified); assay type: in vivo
Description: At first, zebrafish embryos were screened and sorted one hour after fertilization. Only perfectly transparent and fertilized embryos were transferred to plastic well plates. […] Developing embryos were incubated in the MGN solutions until 96 hpf. The amounts of MGN absorbed by zebrafish were measured in 96 hpf-old larvae (n = 50 larvae/sample, three samples/dose) through the use of HPLC-MS. The larvae were first washed in medium prior to homogenization with the additive of acetonitrile:water mixture in equal proportions (50:50 v/v). The homogenate was centrifuged at 20,000 rpm for 20 min, and the supernatant was pipetted, filtered through a nylon syringe filter (nominal pore size of 0.1 µm diameter) and subjected to HPLC-MS analysis in the positive ionization mode.
The following phenotypic features were scored in larvae exposed to different doses of MGN: (I) hatchability at 72 and 96 hpf, (II) morphological anomalies at 96 hpf, and (III) escape response at 96 hpf. Morphological analysis included the presence/lack of swim bladder, body axis/shape, presence/lack of pericardial edema, jaw development, normal/necrotic yolk sac, presence/absence of hemorrhage and changes in pigmentation. For photographs, each larva was anaesthetized and mounted on a glass slide. To evaluate the muscle performance and function in MGN-incubated larvae, in a separate cohort of 96 hours-old larvae, we assessed escape response by touching the tail with the tip of a needle.

zebrafish larvae = assay: Locomotor activity assay in larval zebrafish; assay type: in vivo; conditions: MGN 100, 175 or 250 µg/mL, after 95 h incubation
Description: Locomotor activity was examined to determine whether chronic MGN exposure may induce neurotoxic effects in fish. Noldusapparatus (EthoVision XT, Wageningen, The Netherlands) was used for this purpose. After 95 h of incubation in different doses of MGN (100, 175 or 250 µg/mL), each larva was placed individually in the wells of a 48-well plate filled with 300 µL of the medium. After 15 min of habituation, larval activity was tracked in the light phase for a period of 30 min. The distance covered by each larva in millimeters (mm) was assessed.

COc1ccc2c(c1O)-c1c(O)c(OC)cc3c1[C@H](C2)[N+](C)(C)CC3 [MGN, magnoflorine]
IC50 (ACC-201 human GC cells [1]): 15.8 ± 2.79 µg/mL
IC50 (AGS human GC cells [2]): 17.2 ± 3.59 µg/mL
IC50 (MKN-74 human GC cells [3]): 34.8 ± 6.04 µg/mL
IC50 (NCI-N87 human GC cells): 33.3 ± 5 µg/mL
% cells with active caspase-3 (ACC-201 human GC cells [4]): 6.770 ± 0.866%
% cells with active caspase-3 (AGS human GC cells [5]; MGN 10 µg/mL): 2.390 ± 0.411%
% cells with active caspase-3 (AGS human GC cells [5]; MGN 20 µg/mL): 4.172 ± 0.422%
% cells with active caspase-3 (MKN-74 human GC cells [6]): 2.633 ± 0.069%
Hatching rate ([7]; MGN 100 µg/mL, scored at 72 hpf): 100%
Hatching rate ([7]; MGN 100 µg/mL, scored at 96 hpf): 100%
Hatching rate ([7]; MGN 175 µg/mL, scored at 72 hpf): 100%
Hatching rate ([7]; MGN 175 µg/mL, scored at 96 hpf): 100%
Hatching rate ([7]; MGN 250 µg/mL, scored at 72 hpf): 52.77%
Hatching rate ([7]; MGN 250 µg/mL, scored at 96 hpf): 94.44%
larvae with curved body axis ([7]; MGN 500 µg/mL, 96 hpf): 43%
larvae with delayed touch response ([7]; MGN 500 µg/mL, 96 hpf): 70%
larvae with heart edema ([7]; MGN 500 µg/mL, 96 hpf): 40%
larvae with lack of swim bladder ([7]; MGN 500 µg/mL, 96 hpf): 93%
larvae with underdeveloped jaw ([7]; MGN 500 µg/mL, 96 hpf): 90%
larvae with yolk sac necrosis ([7]; MGN 500 µg/mL, 96 hpf): 46%
Hatching rate ([7]; MGN 500 µg/mL, scored at 72 hpf): 23.33%
Hatching rate ([7]; MGN 500 µg/mL, scored at 96 hpf): 86.66%
Hatching ([7]; MGN 750 µg/mL, up to 96 h): none of the larvae hatched
Survival ([7]; MGN 750 µg/mL, up to 96 h): all survived in chorions
concentration with no evidence of toxicity ([7]; developing zebrafish, chronic exposure from 1 hpf to 96 hpf): up to 250 µg/mL
morphological parameters scored ([7]; three lowest concentrations (100, 175, 250 µg/mL), 96 hpf): did not affect any of the parameters scored
locomotor activity: distance travelled within 30 min vs control (zebrafish larvae): No differences between the tested groups
